Measured values: patent US20260234188A1, “CHEMOKINE-BINDING PEPTIDES” (Oxford University Innovation Limited, priority 2022, published 2026)
Entries after “also recorded” stand apart in the source; their conditions may differ.

Test system: panel of up to 42 human chemokines
Assay: Phage-display next generation sequencing screen of overlapping hexadecapeptide libraries, chemokines displayed on streptavidin beads
Type: binding
Conditions: log2E greater than 5, chemokines named by first part of UniProt Entry Name
Text: FIG. 1. Exemplar results from phage display screens. Phage-display libraries were constructed and analysed as described in (McLaughlin, 2013) (Tonikian, 2007). […] FIG. 1A, CC chemokines against evasin A library. FIG. 1B, CXC chemokines against the evasin B library. FIG. 1C, CXC and CX3C chemokines against the viral chemokine binding protein library. FIG. 1D, CXC chemokines against the chemokine library. […] Identified hexadecapeptides were mapped to the position in the originating protein (x-axis) and to fold enrichment (log 2 E, left y-axis). Regions of interest (ROI) were defined where the cumulative residue log 2 E, (clog 2 E:r, right y-axis) exceeds the 95% upper confidence interval of the median clog 2 E:r for the entire protein (indicated as a horizontal dotted line in each panel). Proteins are referred to by their UniProt ID.
Hexadecapeptides were identified using a phage-display next generation sequencing approach (McLaughlin, 2013). Libraries containing a total of 55662 overlapping peptides (from the tick chemokine binding proteins shown in Tables 3A and 3B, the viral chemokine binding proteins shown in Table 3C, the human chemokines shown in Table 3 E, and the human/viral chemokine receptors and other chemokine-binding proteins shown in Table 3D) were first constructed, and then screened against a panel of up to 42 human chemokines, as shown in Table 3F.

Substance	Chemokines Bound
CR5262 (FILALVGNTLALWLFI)	CCL22, CCL28,; also recorded: SDF1, IL8
CR5277 (FILYQFELFGFTLIFF)	CCL17, CCL22, and CCL25, CCL28, and CXL10, CXL11, and SDF1
CR5349 (FIYVLMFLCNAIGNSL)	CCL19, CCL20,; also recorded: CXL10
CR5416 (FLAFLRSGYDMWLMLV)	CCL1, CCL11, and CCL17, CCL18, and CCL2, CCL20, and CXL11, CXL13, and IL8
CR5475 (FLFHLAVADLLLVFIL)	CCL20, CCL22,; also recorded: CCL28, CXL10,; also recorded: CXL11, SDF1,; also recorded: CXL14
CR5511 (FLGILGNGLVIIIATF)	CCL20, CCL22, and SDF1
CR5518 (FLGLMASVWTHLGMAL)	CCL2, CXL10,; also recorded: CXL11
CR5519 (FLGLMCSVWTHLGMAL)	CCL1, CCL18,; also recorded: CCL2, CCL22,

Same assay, conditions: log2E greater than 5, chemokines named by first part of UniProt Entry Name, peptides binding complement C5a (control) excluded

Substance	Chemokines Bound
CR5519 (FLGLMCSVWTHLGMAL)	CCL28, X3CL1,; also recorded: CXL10, CXL11,; also recorded: SDF1, CXL13,; also recorded: CXL14, IL8
CR5598 (FLLSLGIILFSYVEIL)	CCL18, CCL19, and CXL10, CXL11, and SDF1, CXL14, and IL8
CR5669 (FLSIFYSVIFAIGLVG)	CCL17, CCL18,; also recorded: CCL19, CCL20,; also recorded: CCL28, X3CL1,; also recorded: CXL10, CXL14
CR5737 (FLVVVYSIVSFLGILG)	CCL17, CCL18,; also recorded: CCL19, CCL2,; also recorded: CCL20, CCL22,; also recorded: CCL25, CCL28,; also recorded: X3CL1, CXL10,; also recorded: CXL13, CXL14
CR5738 (FLWGIFPTVIFSYFYV)	CCL18, CCL22, and CCL8, X3CL1, and CXL10, CXL11, and IL8
CR5768 (FMFVLSVLGNLTVVCV)	CCL19, CCL22,; also recorded: CCL25
CR5775 (FMIFAYTFIVKTLVQA)	CCL17, CCL18, and CCL28, X3CL1, and CXL11, SDF1, and CXL13, CXL14, and IL8
CR5776 (FMIFCYTFIVKTLVQA)	CCL1, CCL17,; also recorded: CCL19, CCL20,; also recorded: SDF1, CXL13
CR6041 (FSAILLYIDDFSAYFS)	CCL17, CCL18,; also recorded: X3CL1, IL8
CR6044 (FSALVTLITSLFGSIF)	CCL2, X3CL1,; also recorded: CXL10, IL8
CR6068 (FSFFYVIFSKALHDVT)	CCL1, CCL18, and CCL22, CCL28, and SDF1
CR6097 (FSIFWWIFAVIIAIPH)	CXL10, SDF1,; also recorded: IL8, CCL1,; also recorded: CCL15, CCL22,; also recorded: CCL5, X3CL1,; also recorded: CXL11, CXL13
CR6098 (FSIIAVFYFLLARAIS)	CCL17, CCL20,; also recorded: CCL22, CXL10,; also recorded: CXL11, CXL13,; also recorded: CXL14, IL8
CR6163 (FSRAIDIIYSLITSSN)	CCL17, CCL18,; also recorded: CCL2, CCL22,; also recorded: CCL28, X3CL1,; also recorded: CXL14
CR6212 (FSTFSGMLVYILLLPV)	CXL11, CXL13, and IL8
CR6269 (FTGMPPADEDYSPCML)	CCL11, CCL17,; also recorded: CCL18, CCL19,; also recorded: CCL20
CR6324 (FTWNLVLSQFFSILAT)	CCL11, CCL28,; also recorded: X3CL1, CXL11,; also recorded: CXL13
CR6489 (FWAVDAVANWYFGNFL)	CCL17, CCL18, and CCL22, CCL28, and CXL10, CXL14, and IL8
CR6515 (FWTPYNIVLFLETLVE)	CCL20, CCL22, and CXL10, CXL13, and IL8
CR6520 (FWWIFAVIIAIPHFMV)	CXL10, CXL11

Substance	Chemokines Bound
CR6558 (FYISLFAGVSFLINLS)	CCL17, CCL18,; also recorded: CCL19, CCL20,; also recorded: CCL22, CCL25,; also recorded: CCL28, X3CL1,; also recorded: CXL10, CXL11,; also recorded: SDF1, CXL13,; also recorded: CXL14, IL8
CR6604 (FYVAMFASLCFITEIA)	CXL10, CXL11, and SDF1, CXL13, and IL8
CR6605 (FYVAMFASLSFITEIA)	CXL10, CXL11, and IL8
CR6611 (FYVITLFASDFVLMWC)	CCL22, CCL25,; also recorded: X3CL1, CXL13
CR6623 (FYYIGFYSSMFFITLM)	CCL1, CCL17,; also recorded: CCL18, CCL19,; also recorded: CCL20, CCL22,; also recorded: CCL28, X3CL1,; also recorded: CXL10, CXL11,; also recorded: SDF1, CXL14
CR6624 (FYYLYVYLDIFSVVAV)	CCL15, CCL17, and CCL18, CCL19, and CCL20, CCL22, and CCL25, CCL28, and X3CL1, CXL10, and CXL11, SDF1, and CXL13, CXL14, and IL8
CR6746 (GDFLAKLLNMIFSISL)	CCL20, CCL25,; also recorded: CCL28
CR6836 (GFFIPLMFMIFSYTFI)	CCL22, CXL14, and IL8
CR7000 (GIFFIILLTIDRYLAV)	CCL17, X3CL1,; also recorded: CXL10
CR7024 (GIITSVLAWVTAILAT)	CCL2, CCL22,; also recorded: CCL28, CXL10,; also recorded: CXL11, SDF1,; also recorded: CXL13, IL8
CR7344 (GMGPGPWMNILWAWFI)	CCL1, CCL11,; also recorded: CCL17, CCL18,; also recorded: CCL19, CCL2,; also recorded: CCL20, CCL22,; also recorded: CCL25, CCL8,; also recorded: X3CL1, CXL10,; also recorded: CXL11, SDF1,; also recorded: CXL14, IL8
CR7367 (GMPPADEDYSPCMLET)	CCL11, CCL18,; also recorded: CCL19, CCL20
CR7477 (GPGPWMNILWAWFIFW)	CCL17, CCL18, and CCL19, CCL20, and CCL25, CXL13, and IL8
CR7642 (GSMLLSVLFTLYVSTL)	CCL25, CXL10,; also recorded: CXL11, CXL13
CR7666 (GSVSLVNLLTIIGCLW)	CCL17, CCL20,; also recorded: CCL25
CR7814 (GVVTSVITWLVAVFAS)	CCL11, CCL2, and CCL22, CCL8, and IL8
CR7815 (GVVTSVITWVVAVFAS)	CCL1, CCL15,; also recorded: CCL2, CCL20,; also recorded: CCL22, CCL25,; also recorded: CCL28, CCL8,; also recorded: CXL10, CXL13
CR7818 (GVWLMAIVGTFLNMLV)	CCL1, CCL18,; also recorded: CXL11, SDF1,; also recorded: CXL14
CR7819 (GVWLMAIVGTFLNVLV)	CCL17, CCL18, and CCL2, CCL20, and CCL22, CXL11, and SDF1, CXL13, and IL8
CR7823 (GVWLMSIVGTFLNVLV)	CCL11, CCL17, and CCL18, CCL2, and CCL8, CXL10, and CXL11, CXL14, and IL8

Substance	Chemokines Bound
CR7854 (GWVFIFSSIQLATVVF)	CCL1, CCL15, and CCL17, CCL19, and CCL20, CCL22, and CCL28, X3CL1, and CXL10, CXL11, and SDF1, CXL13, and IL8
CR7856 (GWVFIFSSIQLCTVVF)	CCL1, CCL19, and CCL20, CCL25, and CXL10, SDF1, and IL8
CR7860 (GWVLGDFLCKLLNMIF)	CCL1, CCL17, and CCL18, CCL19, and CCL2, CCL20, and CCL22, CCL28, and CCL8, CXL10, and SDF1, CXL13, and IL8
CR8126 (HIGYFGGIFFIILLTI)	CCL18, CCL22, and CCL25, CXL11, and IL8
CR8251 (HNKTLSFISLLILSFL)	CCL2, X3CL1, and IL8
CR8339 (HRTVKLIFAIVVAYFL)	CCL28, X3CL1,; also recorded: CXL11, SDF1,; also recorded: CXL14
CR8427 (HTLRMTIFCLVLPLLV)	CCL28, CXL10, and CXL11, SDF1, and IL8
CR8437 (HTVLLSWKVLLTMVWG)	CCL1, CCL18,; also recorded: CCL19, CCL20,; also recorded: CXL13
CR8496 (HWGWVLGDFLCKLLNM)	CCL11, CCL17, and CCL18, CCL19, and CCL20, CCL22, and CCL25, CCL28, and X3CL1, CXL10, and CXL11, SDF1, and CXL13, CXL14, and IL8
CR8546 (IAAFSWFMLSLPLLFL)	CCL22, CCL28,; also recorded: CXL14
CR8655 (IAVFGLLGNILVVITF)	CCL17, CCL22,; also recorded: CCL25, IL8
CR8675 (IAYSLIAVFGLLGNIL)	CCL17, CCL22,; also recorded: CCL25, CCL28,; also recorded: CXL11
CR8677 (IAYSLISVFGLLGNIL)	CCL2, CXL10,; also recorded: CXL13
CR8784 (IFAIVVAYFLSWGPYN)	CCL1, CCL15, and CCL17, CCL18, and CCL2, CCL20, and CCL22, CCL25, and CCL28, X3CL1, and CXL10, CXL11, and SDF1, CXL14, and IL8
CR8812 (IFFIILLTIDRYLAIV)	CCL18, CCL19,; also recorded: CCL22, CXL14
CR8813 (IFFIILLTIDRYLAVV)	CCL17, CCL18,; also recorded: CCL20, CCL25,; also recorded: CCL28, CXL10,; also recorded: CXL11, CXL13,; also recorded: CXL14, IL8
CR8966 (IFWWIFAVIIAIPHFM)	IL8
CR9087 (IIALVVWGLSVIISSS)	CCL1, CCL17,; also recorded: CCL18, CCL19,; also recorded: CCL2, CCL20,; also recorded: CCL22, CCL25,; also recorded: CCL28, X3CL1,; also recorded: CXL10, CXL11,; also recorded: SDF1, CXL13,; also recorded: CXL14, IL8
CR9111 (IIFSYVVVFLVAWLPY)	CCL20, CCL22,; also recorded: CCL28, CXL11,; also recorded: CXL13
